Test results from US20120244079A1, “TRACEABLE RETINOID ACID FOR IMAGING, DISEASE PREVENTION AND THERAPY” (BAYLOR COLLEGE OF MEDICINE, priority 2009, published 2012).
Entries after “also recorded” stand apart in the source; their conditions may differ.

Assays:
[1] = system: F4 osteosarcoma tumor xenograft; assay: In vivo NIR imaging, side-by-side with free dye; design: species or system athymic nude mice; conditions: for clearance from the body, time: following the injection
Method: (§1) Four- to six-week-old male athymic nude mice (18-22 g) were housed and fed sterilized pellet chow and provided sterilized water. Animals were maintained in a pathogen-free mouse colony. The facility is accredited by the American Association for Laboratory Animal Care, and all experiments were performed in accordance with the guidelines of the Institutional Animal Care and Use Committee. Tumor cells were harvested near confluence by incubating them with 0.05% trypsin-EDTA. Cells were pelleted by centrifugation at 130×g for five minutes and resuspended in sterile phosphate-buffered saline (PBS). Tumors were induced in animals by subcutaneous injection of approximately one million tumor cells into the hind leg region of the mice. A total of 75 mice were used in this study.
(§2) The NIR-labeled retinoid agent was intraveneously (i.v.) injected into the tumor-bearing mice at a dose of 10 nmol for imaging. The animals were imaged from 1 to 9 days after the injection using an In-Vivo Multispectral System FX, a tandem (SPECT/CT) single photon emission computed tomography (SPECT) and computed tomography (CT) system and imaged with a positron emission tomography (PET) system.
Regions of interest were quantified from the in vitro and in vivo data using ImageJ (National Institutes of Health, USA). Data were analyzed using one-way (analysis of variance) ANOVA or general linear model (GLM). Data comparisons were illustrated in notched box-and-whisker plots. These plots provide the minimum, 25th percentile, median (central line), mean (+), 75th percentile and maximum.
The tumor mass was located in the left hind region of the mouse (FIG. 2A). There was no calcification of the tumor mass (FIG. 2B). […] To eliminate the potential well-established enhanced permeability and retention (EPR) effect of the imaging results, a side-by-side imaging comparison was performed to study and to directly compare the free dye (FIG. 2E to FIG. 2I) and compound 3 (FIG. 2J to FIG. 2M). The same intensity scale was used in this analysis. […] Finally, the merged free dye, RGD and CT images show the only high vasculature signal in the vicinity of the tumor (FIG. 2I). In contrast, the merged compound 3, RGD and CT images show both vasculature and RA (compound 3) signal intensity increases in the tumor region (FIG. 2N, yellow). All of the data were further analyzed at the animal population level.

[2] = system: human osteosarcoma SOSP-9607 cells; assay: Confocal microscopy cell binding/uptake; assay type: cell-based; conditions: 100 μm, 60 minutes at 37° C.
Method: (§3) The human colon (HT-29), nasal (CCL-30) and lung (A549) cancer cell lines were purchased from the American Type Culture Collection (ATCC, Manassas, Va.). Human osteosarcoma (F5M2, OS-9901, SOSP-S607, F4, CM319) and nasopharyngeal carcinoma cell lines (CNE-2) were generated in-house. The cells were cultured in Dulbecco's Modified Eagle Medium supplemented with high glucose and F12 nutrient (DMEM/F12, Invitrogen, Carlsbad, Calif.) with 10% fetal bovine serum (Hyclone, Logan, Utah) in a humidified incubator maintained at 37° C. with 5% CO2.
(§4) Cells were harvested, and the NIR-labeled retinoid agent or the free dye (100 μm) was added. The mixture was incubated for 60 minutes at 37° C. Cells were washed in PBS. Sytox Green in 95% ethanol was added, and cells were incubated for 15 minutes at 4° C. to fix them and stain their nuclei. Stained cells were then transferred to a slide and mounted for microscopic examination. Images were recorded by an Olympus confocal microscope. The microscope was equipped with an excitation (Ex) light source and emission (Em) filters to detect and separate the labeled retinoids (ex/em 785/810 nm) and cell nuclei (Ex/Em 488/510 nm) signals. Confocal image signals were recorded from one slice of a cell z-stack. Sytox green and NIR-labeled retinoid or NIR dye signals were pseudo-colored green (emission at 510 nm) and red (emission at 810 nm), respectively.
(§5) The uptake of NIR-labeled retinoid agent by human cancer cells was verified by confocal microscopy (FIG. 1A to 1H). […] The nuclear internalization was temperature-dependent (FIG. 1J and FIG. 1K). The signal intensity was stronger in cells incubated at 37° C. (FIG. 1I) than in those incubated at 4° C. (FIG. 1L) or the negative cells incubated at 37° C. (FIG. 1M, FIG. 1N, and FIG. 1O). These differences are statistically significant (FIG. 1P).

[3] = system: human nasopharyngeal cancer (CNE-2) cells; assay: Confocal microscopy cell binding/uptake; assay type: cell-based; conditions: 100 μm, 60 minutes at 37° C.
Method: as §3, §4, §5

[4] = system: human lung cancer (A549) cells; assay: Confocal microscopy cell binding/uptake; assay type: cell-based; conditions: 100 μm, 60 minutes at 37° C.
Method: as §3, §4, §5

[5] = system: human osteosarcoma F4 cells; assay: Confocal microscopy cell binding/uptake; assay type: cell-based; conditions: 100 μm, 60 minutes at 37° C.
Method: as §3, §4, §5

[6] = system: human osteosarcoma F5M2 cells; assay: Confocal microscopy cell binding/uptake; assay type: cell-based; conditions: 100 μm, 60 minutes at 37° C.
Method: as §3, §4, §5

[7] = system: human colon cancer (HT-29) cells; assay: Confocal microscopy cell binding/uptake; assay type: cell-based; conditions: 100 μm, 60 minutes at 37° C.
Method: as §3, §4, §5

[8] = system: human osteosarcoma OS-9901 cells; assay: Confocal microscopy cell binding/uptake; assay type: cell-based; conditions: 100 μm, 60 minutes at 37° C.
Method: as §3, §4, §5

CM319 osteosarcoma cells = assay: Confocal microscopy cell binding/uptake; assay type: cell-based, human
Method: as §3, §4

[9] = Systemic toxicity by bodyweight gain; assay type: in vivo, mice
Method: (§6) Tumor-bearing mice were divided into three groups for the dose acceleration study; they were injected with 0.03 mg, 0.06 mg, or 0.125 mg of the NIR-labeled retinoid agent that was equivalent to the non-labeled retinoid, respectively. The tumor-to-muscle ratio was calculated from the imaging data. The systemic toxicity was measured using control mice. The mice were treated with PBS (control), a low dose (0.1 mg/kg/week), or a dosage that was five times lower than that reported in published human clinical trials (0.6 mg/kg/week). The bodyweight was measured every other day, and the percentage gain in bodyweight was used as the toxicity indicator.
(§7) To test for a saturation effect of the target-specific biological agent, three groups of animal were injected with different doses of the retinoid agent. The tumor-to-muscle ratio was used to compare the dose response in the tumor. […] However, the higher dose was associated with a significant decrease in the gain of bodyweight (FIG. 7B).

human cancer cells = assay: Confocal microscopy: effect of temperature and signal localisation; assay type: cell-based
Method: as §4, §5
The negative cells also show the minimum signal intensity (FIG. 1M and FIG. 1N).

[10] = system: human colon cancer xenograft; assay: Tumor-to-muscle and liver-to-tumor ratios over time; assay type: in vivo, athymic nude mice; conditions: for signal in the liver versus background/muscle level: 14 days post-injection, single 18.4 μg injection
Method: as §1
as §2, with “The animals were imaged from 1 to 9 days after the injection using an In-Vivo Multispectral” left out
[…] […] The imaging agent was initially concentrated in the liver after the injection, but it gradually redistributed from the liver to the tumor over time. […] The maximum TMR (2.7) was reached 6 days post-injection in some animals, after which it started to decrease.

tumor xenograft = assay: Dose acceleration response (tumor-to-muscle ratio); assay type: in vivo, mice; conditions: injection dose increased from 0.03 to 0.125 mg, p>0.5270
Method: as §6, §7

[11] = system: human colon, lung, nasal cancer, and neuroblastoma xenografts; assay: In vivo NIR imaging of other xenografts; design: species or system athymic nude mice; conditions: across all four tumor xenografts
Method: as §1, §2
To confirm the findings in other cancer cell types, the RA agent was tested in human colon (FIG. 4A), lung (FIG. 4B), nasal (FIG. 4C) cancer, and neuroblastoma (FIG. 4 D) xenografts. […]

[12] = 30 mg/day, stage I and II head and neck cancer patients; cited from earlier work

Q: For CC1(C)C(=CC=C2CCCC(C=CC3=[N+](CCCCCC(=O)[O-])c4ccc(S(=O)(=O)[O-])cc4C3(C)C)=C2Oc2ccc(S(=O)(=O)[O-])cc2)N(CCCCS(=O)(=O)[O-])c2ccc(S(=O)(=O)[O-])cc21.[Na+].[Na+].[Na+].[Na+] [IRDye800CW, reference compound], which “optical signal in the animal” value ([1]; after 24 hours) is on record?
A: completely undetectable

Q: And the “signal intensity (TBR), IRDye800CW group vs RA group” value ([1]; after 24 hours, P<0.0001)?
A: significantly lower

Q: What about the “clearance from the body, time” value [1] of the same molecule?
A: 24 h

Q: What about the “clearance from the body, time” value ([1]; listed as free dye) of the same molecule?
A: ≤ 24 h

Q: What about the “binding to cells (NIR signal, confocal image)” value [2] of the same molecule?
A: no detectable signal

Q: And the “binding to cells (NIR signal, confocal image)” value [3]?
A: no detectable signal

Q: And the “binding to cells (NIR signal, confocal image)” value [4]?
A: no detectable signal

Q: And the “binding to cells (NIR signal, confocal image)” value [5]?
A: no detectable signal

Q: And the “binding to cells (NIR signal, confocal image)” value [6]?
A: no detectable signal

Q: What about the “binding to cells (NIR signal, confocal image)” value [7] of the same molecule?
A: no detectable signal

Q: What about the “binding to cells (NIR signal, confocal image)” value [8] of the same molecule?
A: no detectable signal

Q: What does the source list for CC1=C(/C=C/C(C)=C/C=C/C(C)=C/C(=O)NCCCCCCNC(=O)CCCCCN2/C(=C/C=C3\CCCC(/C=C/C4=[N+](CCCCS(=O)(=O)O)c5ccc(S(=O)(=O)O)cc5C4(C)C)=C3Oc3ccc(S(=O)(=O)O)cc3)C(C)(C)c3cc(S(=O)(=O)O)ccc32)C(C)(C)CCC1 [compound 3, RA-HN(CH2)6NH—IRdye 800]?
A: binding to cells (CM319 osteosarcoma cells): strongly binds to all the tested human cancer cell lines except CM319 osteosarcoma cells; percentage of bodyweight gain vs untreated control and low dose group ([9]; high dose 0.6 mg/kg/week, p=0.0003 vs control, p=0.0001 vs low dose): significantly lower; percentage of bodyweight gain vs control group ([9]; low dose 0.1 mg/kg/week, p=0.0519): no differences; binding when incubated at 4° C. (human cancer cells; 4° C.): minimum binding; signal intensity in cells incubated at 37° C. versus 4° C. or negative cells (human cancer cells; 37° C. vs 4° C., statistically significant, listed as NIR-labeled retinoid agent): stronger; also recorded: higher signal intensity was observed at 37 °C than at 4 °C; localisation of retinoid signal in cells (human cancer cells; 37° C., confocal, listed as NIR-labeled retinoid agent): not only detected in the cytoplasm but also in the nuclei; also recorded: localizes to the cell membrane and cytoplasm; signal intensity in the liver and tumor ([1]; 72 hours post-injection): high signal intensity; tumor-to-background ratio (TBR) ([1]; 72 hours post-injection, single animal): 2.76; signal intensity (TBR), IRDye800CW group vs RA group ([1]; within the first 24 hours, P=0.6088): no statistically significant difference; liver-to-tumor ratio relative to tumor-to-muscle ratio ([10]; 1 day post-injection): almost twice as high; signal in the liver versus background/muscle level ([10]; listed as NIR-labeled retinoid agent): still higher than the background level; signal in the liver versus background/muscle level ([10]; listed as retinoid analog imaging agent): had not returned to the muscle level; time at which liver-to-tumor and tumor-to-muscle ratios intersected ([10]; post-injection): 3 days; maximum tumor-to-muscle ratio (TMR) ([10]; single injection 18.4 μg per 25 grams of bodyweight, some animals): 2.7; tumor-to-muscle ratio, dose response (tumor xenograft; listed as imaging agent): no statistically significant difference; tumor-to-muscle ratio, dose response (tumor xenograft; listed as retinoid agent): no significant difference; binding to cells (NIR signal, confocal image) [2]: bound; binding to cells (NIR signal, confocal image) [3]: bound; binding to cells (NIR signal, confocal image) [4]: bound; binding to cells (NIR signal, confocal image) [5]: bound; binding to cells (NIR signal, confocal image) [6]: bound; binding to cells (NIR signal, confocal image) [7]: bound; binding to cells (NIR signal, confocal image) [8]: bound; tumor-to-background ratio [11]: 2.15 to 2.74

Q: With CC1=C(/C=C/C(C)=C/C=C/C(C)=C\C(=O)O)C(C)(C)CCC1 [retinoid, isotretinoin] as the molecule, how does the “patients developing adverse effects” value [12] read?
A: 49.7%
